Test results from patent US9302999B2, “Substituted triazoles as herbicides” (E. I. DU PONT DE NEMOURS AND COMPANY, priority 2012, dated 2016).

Key:
Type in all cases: in vivo
[1] = system: pigweed (Amaranthus retroflexus); assay: Test A pre-/postemergence: pigweed; conditions: for Pigweed plant response rating: Postemergence; for Plant response rating, Pigweed: Preemergence
Method in brief: (§1)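 Seeds were sown in loam/sand blend and sprayed preemergence (directed soil spray) and, simultaneously, postemergence at 2–10 cm, one- to two-leaf stage, using compounds in non-phytotoxic solvent with surfactant. After ~10 days in greenhouse, injury was rated visually versus untreated controls, 0 (no effect) to 100 (complete control).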

[2] = system: wheat (Triticum aestivum); assay: Test A pre-/postemergence: wheat; conditions: for Wheat plant response rating: Postemergence; for Plant response rating, Wheat: Preemergence
Method in brief: as §1

rice (Oryza sativa) = assay: Test C flooded paddy test: rice; conditions: scale 0 to 100 (0 no effect, 100 complete control)
Method in brief: (§2)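 Greenhouse plants treated at the 2-leaf stage by dosing the flood water (3 cm depth, maintained) were compared with controls after 13 to 15 days and rated 0 to 100, where 100 means complete control; a dash marks no test result.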

[3] = system: ducksalad (Heteranthera limosa); assay: Test C flooded paddy test: ducksalad; conditions: scale 0 to 100 (0 no effect, 100 complete control)
Method in brief: as §2

[4] = system: crabgrass, large (large crabgrass, Digitaria sanguinalis); assay: Test A pre-/postemergence: crabgrass, large; conditions: for Crabgrass, Large plant response rating: Postemergence; for Plant response rating, Crabgrass, Large: Preemergence
Method in brief: as §1

[5] = system: velvetleaf (Abutilon theophrasti); assay: Test A pre-/postemergence: velvetleaf; conditions: for Velvetleaf plant response rating: Postemergence; for Plant response rating, Velvetleaf: Preemergence
Method in brief: as §1

[6] = system: morningglory (Ipomoea spp.); assay: Test A pre-/postemergence: morningglory; conditions: for Morningglory plant response rating: Postemergence; for Plant response rating, Morningglory: Preemergence
Method in brief: as §1

[7] = system: barnyardgrass (Echinochloa crus-galli); assay: Test A pre-/postemergence: barnyardgrass; conditions: for Barnyardgrass plant response rating: Postemergence; for Plant response rating, Barnyardgrass: Preemergence
Method in brief: as §1

[8] = system: foxtail, giant (giant foxtail, Setaria faberii); assay: Test A pre-/postemergence: foxtail, giant; conditions: for Foxtail, Giant plant response rating: Postemergence; for Plant response rating, Foxtail, Giant: Preemergence
Method in brief: as §1

[9] = system: barnyardgrass (Echinochloa crus-galli); assay: Test C flooded paddy test: barnyardgrass; conditions: scale 0 to 100 (0 no effect, 100 complete control)
Method in brief: as §2

corn (Zea mays) = assay: Test A pre-/postemergence: corn; conditions: for Corn plant response rating: Postemergence; for Plant response rating, Corn: Preemergence
Method in brief: as §1

[10] = system: sedge, umbrella (small-flower umbrella sedge, Cyperus difformis); assay: Test C flooded paddy test: sedge, umbrella; conditions: scale 0 to 100 (0 no effect, 100 complete control)
Method in brief: as §2

[11] = 125 g ai/ha, 0 to 100 scale, 0 is no effect, 100 is complete control
[12] = 500 g ai/ha, visual rating on 0 to 100 scale (0 no effect, 100 complete control), approximately ten days
[13] = 125 g ai/ha, 0 to 100 scale (0 no effect, 100 complete control)
[14] = 500 g ai/ha, 0 to 100 scale, 0 is no effect, 100 is complete control
[15] = Flood (flooded paddy test), 125 g ai/ha, visual rating after 13 to 15 days
[16] = Flood (flooded paddy test), 250 g ai/ha, visual rating after 13 to 15 days
[17] = Flood (flooded paddy test), 62 g ai/ha, visual rating after 13 to 15 days
[18] = 125 g ai/ha, 0 to 100 scale where 0 is no effect and 100 is complete control

Cc1nn(-c2ccc(C(F)(F)F)cc2)nc1Oc1ccccc1Cl [Compound 82]
0: Pigweed plant response rating [1, 11] | Pigweed plant response rating [1, 12] | Plant response rating, Pigweed [1, 13] | Plant response rating, Pigweed [1, 14] | Wheat plant response rating [2, 11] | Wheat plant response rating [2, 12] | Plant response rating, Wheat [2, 13] | Plant response rating, Wheat [2, 14] | Plant response rating, Rice (rice (Oryza sativa); [15]) | Plant response rating, Rice (rice (Oryza sativa); [16]) | Plant response rating, Rice (rice (Oryza sativa); Flood, 31 g ai/ha) | Plant response rating, Rice (rice (Oryza sativa); Flood, 62 g ai/ha) | Plant response rating, Ducksalad [3, 15] | Plant response rating, Ducksalad [3, 16] | Plant response rating, Ducksalad ([3]; Flood, 31 g ai/ha) | Plant response rating, Ducksalad ([3]; Flood, 62 g ai/ha) | Crabgrass, Large plant response rating [4, 11] | Crabgrass, Large plant response rating [4, 12] | Plant response rating, Crabgrass, Large [4, 13] | Plant response rating, Crabgrass, Large [4, 14] | Velvetleaf plant response rating [5, 11] | Velvetleaf plant response rating [5, 12] | Plant response rating, Velvetleaf [5, 13] | Plant response rating, Velvetleaf [5, 14] | Morningglory plant response rating [6, 11] | Morningglory plant response rating [6, 12] | Plant response rating, Morningglory [6, 13] | Plant response rating, Morningglory [6, 14] | Barnyardgrass plant response rating [7, 11] | Barnyardgrass plant response rating [7, 12] | Plant response rating, Barnyardgrass [7, 13] | Plant response rating, Barnyardgrass [7, 14] | Foxtail, Giant plant response rating [8, 11] | Foxtail, Giant plant response rating [8, 12] | Plant response rating, Foxtail, Giant [8, 13] | Plant response rating, Foxtail, Giant [8, 14] | Plant response rating, Barnyardgrass [9, 15] | Plant response rating, Barnyardgrass [9, 16] | Plant response rating, Barnyardgrass ([9]; Flood, 31 g ai/ha) | Plant response rating, Barnyardgrass ([9]; Flood, 62 g ai/ha) | Corn plant response rating (corn (Zea mays); [11]) | Corn plant response rating (corn (Zea mays); [12]) | Plant response rating, Corn (corn (Zea mays); [13]) | Plant response rating, Corn (corn (Zea mays); [14]) | Plant response rating, Sedge, Umbrella [10, 15] | Plant response rating, Sedge, Umbrella [10, 16] | Plant response rating, Sedge, Umbrella ([10]; Flood, 31 g ai/ha) | Plant response rating, Sedge, Umbrella ([10]; Flood, 62 g ai/ha)

Cc1nn(-c2ccc(F)cc2)nc1Oc1ccnc(OCC(F)(F)F)c1 [Compound 71]
10: Pigweed plant response rating [1, 11] | Crabgrass, Large plant response rating [4, 11] | Crabgrass, Large plant response rating [4, 12] | Plant response rating, Crabgrass, Large [4, 14] | Velvetleaf plant response rating [5, 12] | Morningglory plant response rating [6, 11] | Morningglory plant response rating [6, 12] | Barnyardgrass plant response rating [7, 12] | Foxtail, Giant plant response rating [8, 11] | Foxtail, Giant plant response rating [8, 12] | Corn plant response rating (corn (Zea mays); [12])
0: Plant response rating, Pigweed [1, 13] | Plant response rating, Pigweed [1, 14] | Wheat plant response rating [2, 11] | Wheat plant response rating [2, 12] | Plant response rating, Wheat [2, 13] | Plant response rating, Wheat [2, 14] | Plant response rating, Rice (rice (Oryza sativa); [17]) | Plant response rating, Rice (rice (Oryza sativa); [15]) | Plant response rating, Rice (rice (Oryza sativa); [16]) | Plant response rating, Rice (rice (Oryza sativa); Flood, 31 g ai/ha) | Plant response rating, Ducksalad [3, 17] | Plant response rating, Ducksalad [3, 15] | Plant response rating, Ducksalad [3, 16] | Plant response rating, Ducksalad ([3]; Flood, 31 g ai/ha) | Plant response rating, Crabgrass, Large [4, 13] | Velvetleaf plant response rating [5, 11] | Plant response rating, Velvetleaf [5, 13] | Plant response rating, Velvetleaf [5, 14] | Plant response rating, Morningglory [6, 13] | Plant response rating, Morningglory [6, 14] | Barnyardgrass plant response rating [7, 11] | Plant response rating, Barnyardgrass [7, 13] | Plant response rating, Barnyardgrass [7, 14] | Plant response rating, Foxtail, Giant [8, 13] | Plant response rating, Foxtail, Giant [8, 14] | Plant response rating, Barnyardgrass [9, 17] | Plant response rating, Barnyardgrass [9, 15] | Plant response rating, Barnyardgrass [9, 16] | Plant response rating, Barnyardgrass ([9]; Flood, 31 g ai/ha) | Corn plant response rating (corn (Zea mays); [11]) | Plant response rating, Corn (corn (Zea mays); [13]) | Plant response rating, Corn (corn (Zea mays); [14]) | Plant response rating, Sedge, Umbrella [10, 17] | Plant response rating, Sedge, Umbrella [10, 15] | Plant response rating, Sedge, Umbrella [10, 16] | Plant response rating, Sedge, Umbrella ([10]; Flood, 31 g ai/ha)
40: Pigweed plant response rating [1, 12]

Cc1nn(-c2cccc(I)c2)nc1C(=O)c1cccc(C(F)(F)F)c1 [Compound 90]
10: Crabgrass, Large plant response rating [4, 12] | Morningglory plant response rating [6, 12] | Barnyardgrass plant response rating [7, 12] | Foxtail, Giant plant response rating [8, 12] | Corn plant response rating (corn (Zea mays); [12])
30: Pigweed plant response rating [1, 12]
0: Pigweed plant response rating [1, 11] | Plant response rating, Pigweed [1, 18] | Plant response rating, Pigweed [1, 14] | Wheat plant response rating [2, 11] | Wheat plant response rating [2, 12] | Plant response rating, Wheat [2, 18] | Plant response rating, Wheat [2, 14] | Plant response rating, Rice (rice (Oryza sativa); [15]) | Plant response rating, Rice (rice (Oryza sativa); [16]) | Plant response rating, Rice (rice (Oryza sativa); Flood, 31 g ai/ha) | Plant response rating, Rice (rice (Oryza sativa); Flood, 62 g ai/ha) | Plant response rating, Ducksalad [3, 15] | Plant response rating, Ducksalad [3, 16] | Plant response rating, Ducksalad ([3]; Flood, 31 g ai/ha) | Plant response rating, Ducksalad ([3]; Flood, 62 g ai/ha) | Crabgrass, Large plant response rating [4, 11] | Plant response rating, Crabgrass, Large [4, 13] | Plant response rating, Crabgrass, Large [4, 14] | Velvetleaf plant response rating [5, 11] | Velvetleaf plant response rating [5, 12] | Plant response rating, Velvetleaf [5, 18] | Plant response rating, Velvetleaf [5, 14] | Morningglory plant response rating [6, 11] | Plant response rating, Morningglory [6, 18] | Plant response rating, Morningglory [6, 14] | Barnyardgrass plant response rating [7, 11] | Plant response rating, Barnyardgrass [7, 13] | Plant response rating, Barnyardgrass [7, 14] | Foxtail, Giant plant response rating [8, 11] | Plant response rating, Foxtail, Giant [8, 18] | Plant response rating, Foxtail, Giant [8, 14] | Plant response rating, Barnyardgrass [9, 15] | Plant response rating, Barnyardgrass [9, 16] | Plant response rating, Barnyardgrass ([9]; Flood, 31 g ai/ha) | Plant response rating, Barnyardgrass ([9]; Flood, 62 g ai/ha) | Corn plant response rating (corn (Zea mays); [11]) | Plant response rating, Corn (corn (Zea mays); [13]) | Plant response rating, Corn (corn (Zea mays); [14]) | Plant response rating, Sedge, Umbrella [10, 15] | Plant response rating, Sedge, Umbrella [10, 16] | Plant response rating, Sedge, Umbrella ([10]; Flood, 31 g ai/ha) | Plant response rating, Sedge, Umbrella ([10]; Flood, 62 g ai/ha)

Cc1nn(-c2ccc(F)cc2)nc1Cn1ccc(C(F)(F)F)n1 [Compound 2]
50: Plant response rating, Foxtail, Giant [8, 14]
20: Crabgrass, Large plant response rating [4, 12] | Morningglory plant response rating [6, 12] | Foxtail, Giant plant response rating [8, 12]
90: Pigweed plant response rating [1, 12] | Plant response rating, Crabgrass, Large [4, 14]
10: Wheat plant response rating [2, 12] | Crabgrass, Large plant response rating [4, 11] | Plant response rating, Crabgrass, Large [4, 13] | Morningglory plant response rating [6, 11] | Barnyardgrass plant response rating [7, 12] | Plant response rating, Barnyardgrass [7, 14] | Foxtail, Giant plant response rating [8, 11] | Plant response rating, Foxtail, Giant [8, 13] | Corn plant response rating (corn (Zea mays); [11]) | Corn plant response rating (corn (Zea mays); [12])
0: Plant response rating, Pigweed [1, 13] | Wheat plant response rating [2, 11] | Plant response rating, Wheat [2, 13] | Plant response rating, Wheat [2, 14] | Plant response rating, Rice (rice (Oryza sativa); [17]) | Plant response rating, Rice (rice (Oryza sativa); [16]) | Plant response rating, Ducksalad [3, 17] | Plant response rating, Ducksalad [3, 16] | Velvetleaf plant response rating [5, 11] | Velvetleaf plant response rating [5, 12] | Plant response rating, Velvetleaf [5, 13] | Plant response rating, Velvetleaf [5, 14] | Plant response rating, Morningglory [6, 13] | Plant response rating, Morningglory [6, 14] | Barnyardgrass plant response rating [7, 11] | Plant response rating, Barnyardgrass [7, 13] | Plant response rating, Barnyardgrass [9, 17] | Plant response rating, Barnyardgrass [9, 16] | Plant response rating, Corn (corn (Zea mays); [13]) | Plant response rating, Corn (corn (Zea mays); [14]) | Plant response rating, Sedge, Umbrella [10, 17]
60: Plant response rating, Pigweed [1, 14]
70: Plant response rating, Sedge, Umbrella [10, 16]
30: Pigweed plant response rating [1, 11]
